The source of these data is patent US6482990B1, “Prostaglandin E analogues” (Taisho Pharmaceutical Co., Ltd., priority 1999, dated 2002).

For the test, the system named is human vascular smooth muscle cells. Kind of test: DNA synthesis inhibition activity (3H-thymidine intake) in human vascular smooth muscle cells. It counts as cell-based. As to conditions: for inhibiting activity on the growth of human vascular smooth muscle cells: conclusion in words from Table 2; for IC50: vascular cells derived from normal human aorta, 24 hours culture with 3H-thymidine, test compound as ethanol solution, compared with vehicle-treated control. As for the experimental part:
Determination of DNA synthesis inhibition activity of PGE1 analogs to human vascular smooth muscle cells
On a 24 well-plate (manufactured by Corning Co.), 1×10^4 cells/well of quintic culture cells of vascular cells derived from normal human aorta (produced by Kurabo Co.) were inoculated and cultured for 2 days. The medium was exchanged from the growth medium (SG2: produced by Kurabo Co.) to the basal medium (SB2: produced by Kurabo Co.), and cultured for 24 hours, to which was added the growth medium (SG2) containing an ethanol solution of the test compound. ^3H-thymidine (produced by Daiichi Chemicals Co.) was added in an amount of 0.01 mci/well and, after culturing for 24 hours, the cultured supernatant was removed by suction, followed by washing with a phosphate buffer solution (PBS).
5% Trichloroacetic acid (TCA) was added and, after allowing to stand at 4° C. for 20 minutes, the mixture was washed once with TCA. The mixture was washed with PBS, and dissolved in 0.5 N KOH. Intake of ^3H-thymidine was determined using 20 μl of KOH dissolving the cells which incorporated ^3H-thymidine in the nucleus by means of a liquid scintillation counter (manufactured by Hewlett-Packard Co.).

The IC50 is the concentration that gives 50% inhibition. The low end stands for higher potency, the high end for lower potency. Turning to `Cc1ccc(CCCC2C(=O)CC(O)C2C=CC(O)CCc2ccccc2)cc1` (centres unmarked) [Compound 29, 2-Decarboxy-2,3,4,18,19,20-hexanor-5-(4-methylphenyl)-17-phenyl-PGE1], the “inhibiting activity on the growth of human vascular smooth muscle cells” value is “high inhibiting activity” and the IC50 is 730 nM.

Consider `O=C1CC(O)C(C=CC(O)CCc2ccccc2)C1CCCc1ccc(C(F)(F)F)cc1` (centres unmarked) [Compound 18, 2-Decarboxy-2,3,4,18,19,20-hexanor-5-(4-trifluoromethylphenyl)-17-phenyl-PGE1], for which the “inhibiting activity on the growth of human vascular smooth muscle cells” value was “high inhibiting activity” and the midpoint of inhibition, the IC50, lay at 660 nM.

`COC(=O)/C=C/CCCCC1C(=O)CC(O)C1C#CC(O)CCc1ccccc1` (centres unmarked) [Comparative Compound, (2E)-18,19,20-Trinor-17-phenyl-2,3,13,14-tetradehydro-PGE1 methyl ester, reference compound] returned an IC50 of 4360 nM.
